Measured values: US20070105721A1, “Vinylogous 4-Hpyrones and their use in promoting plant growth” (priority 2003, published 2007)

Columns and labels:
Format in all cases: in vivo
test species = assay: Germination tests in a range of test species; settings: each of the test species
Experimental: Grand Rapids Lettuce seeds (Waltham strain) were obtained from R.B. Dessert Seed Co. and were frozen in sachets until use. For testing of aqueous samples, 2.5 mL of test solution was applied to three replicates of 40-50 seeds in Petri dishes (90 mm) lined with two layers of Whatman No. 1 filter paper (7 cm). Millipore filtered water (MP water) was used as a control for each experiment and dilutions of each sample were used to ensure the optimum concentration range for activity. Fractions were reconstituted to their original concentration (before fractionation) and dilutions were made using MP water. Petri dishes were sealed with a layer of plastic wrap, and stored in a light proof container. All manipulations involving the seed were carried out in a dark room and germinants, based on the appearance of a radicle, were scored after 48 hours incubation.
Conostylis aculeata and Stylidium affine seeds were obtained from Nindethana seed service and stored before use. For testing of aqueous samples, three replicates of 20-30 sterilised seeds were added to UV sterilised petri dishes (90 mm), containing two Whatman No. 1 filter papers (7 cm) moistened with the filtered test solution (2.5 mL, 0.22 μm). […] The seeds were scored on a weekly basis with optimum germination achieved between 4-6 weeks.

[1] = system: Conostylis aculeata seeds; assay: Native bioassay
Experimental: (§1) Conostylis aculeata and Stylidium affine seeds were obtained from Nindethana seed service and stored before use. For testing of aqueous samples, three replicates of 20-30 sterilised seeds were added to UV sterilised petri dishes (90 mm), containing two Whatman No. 1 filter papers (7 cm) moistened with the filtered test solution (2.5 mL, 0.22 μm). MP water was used as a control for each experiment and dilutions of each sample were used to ensure the optimum concentration range for activity. Petri dishes were then sealed with parafilm and incubated in the dark at 20±1° C. The seeds were scored on a weekly basis with optimum germination achieved between 4-6 weeks.

Stylidium affine seeds = assay: Native bioassay
Experimental: as §1

Nicotiana attenuate = assay: Germination on moist filter paper in petri dishes; settings: SW 1/10 dilution, compound 1a tested at 100 ppb
Camissonia califomica = assay: Germination on moist filter paper in petri dishes; settings: SW 1/10 dilution, compound 1a 10 ppb
[2] = 1/10 (of neat SW; of compound 1a 1 mg/L)
[3] = 1/100 (of neat SW; of compound 1a 1 mg/L)
[4] = Neat (neat SW; compound 1a 1 mg/L), mean (SEM)
[5] = compounds isolated from smoke, mean (SEM)

With `Cc1c2ccocc-2oc1=O` [Compound 1a, 3-Methyl-2H-furo[2,3-c]pyran-2-one] the “concentration for which germination promoting activity has been shown” value (test species) was 100 ppt, the Conostylis aculeate germination ([1]; 1/10 000 of compound 1a 1 mg/L) was 29.4 (3.4) % and the Conostylis aculeate germination [1, 2] was 48.2 (4.0) %. For the same compound, the Conostylis aculeate germination [1, 3] was 50.6 (6.5) %, the Conostylis aculeate germination ([1]; 1/1000 of compound 1a 1 mg/L) was 43.0 (4.5) % and the Conostylis aculeate germination [1, 4] was 46.3 (3.1) %. For the same compound, the “Germination, Conostylis aculeata” value [1, 5] was 46.5 (4.9) %, the Stylidium affine germination (Stylidium affine seeds; 1/10 000 of compound 1a 1 mg/L) was 39.9 (10.9) % and the Stylidium affine germination (Stylidium affine seeds; [2]) was 83.4 (3.7) %. The Stylidium affine germination (Stylidium affine seeds; [3]) was 71.8 (1.7) %, the Stylidium affine germination (Stylidium affine seeds; 1/1000 of compound 1a 1 mg/L) was 70.9 (3.1) % and the Stylidium affine germination (Stylidium affine seeds; [4]) was 79.0 (3.1) %. For the same compound, the “Germination, Stylidium affine” value (Stylidium affine seeds; [5]) was 67.9 (2.5) %, the “Germination, Nicotiana attenuate” value (Nicotiana attenuate) was “**44.4 (±1.9) b %” and the “Germination, Camissonia califomica” value (Camissonia califomica) was 85.3 (±4.8) b %.
